Measurements published in patent publication US12403111B2, “Compositions and methods for treating neurodevelopmental disorders” (SynGAP Research Fund, priority 2024, dated 2025).
Entries after “also recorded” stand apart in the source; their conditions may differ.

Columns and labels:
[1] = tested on: raskol Drosophila eye phenotype; experiment: Eye phenotype recovery assay (eye size) over several drug concentrations, SYNGAP1 (raskol) knockdown flies; assay type: in vivo, Drosophila melanogaster; details: for Effect on eye phenotype recovery (eye size): Example 38, multiple drug dilutions vs control
Excerpt: Increased eye size over control (dark grey) indicates improved phenotype. […]
FIG. 42B depicts the eye size effect of NADL, L-Leucine and beta-hydroxyisovaleric acid on raskol Drosophila eye phenotype over multiple drug dilutions from Example 38.
A prioritized list of top hits was developed to further validate. Priority was place on actionable, safe, and biologically relevant drugs. To validate a top hit, the effect of each drug was tested over three doses. Three concentrations (1, 5, and 25 uM) were compared to a no drug control.

mTORC1 = mTORC1 (Homo sapiens, UniProt P42345); details: cited from earlier work
[2] = tested on: raskol Drosophila eye phenotype; experiment: Drug screen (Prestwick Chemical Library) for rescue of degenerate eye in Drosophila model of SYNGAP1; assay type: in vivo, Drosophila melanogaster; details: screen of over 1520 drugs; Z scores >1 indicated improved phenotype
Excerpt: The invention is also directed in part to a Drosophila melanogaster (fruit fly) model of SYNGAP1. The model is based on eye-specific RNAi knockdown of SYNGAP1, which is called raskol gene in flies. RNAi knockdown of the raskol gene in the eye of Drosophila results in a smaller, degenerate eye (FIG. 1). In one embodiment, the model is used to screen drug that rescue the degenerate eye phenotype in Drosophila melanogaster.
FIG. 7 is a graph of the Z-score of chemical effects on raskol Drosophila eye phenotype. Z scores >1 indicated improved phenotype; Z scores <1 indicated worsened phenotype. The arrow indicates the Z-score positioning of N-Acetyl-L-leucine (NALL).
Drosophila (fruit fly) model of SYNGAP1 was generated. This model is partial loss of function of SYNGAP1, similar to what is observed in humans.
To generate the model, fruit flies were engineered to eliminate SYNGAP1 gene expression in the eye. In flies, the gene is called raskol but herein referred to as SYNGAP1 for clarity. Eye-specific knockdown of SYNGAP1 using RNAi was used. RNAi knockdown of SYNGAP in the eye results in a smaller, disorganized and degenerate eye (FIG. 5).
The model allows for ascertaining therapeutic efficacy of a compound. The efficacy is evidenced by restoration of normal eye appearance upon treatment with the compound. […]

raskol Drosophila = experiment: Induced seizures in raskol Drosophila; assay type: in vivo, Drosophila melanogaster; details: compared to untreated or NADL treated raskol Drosophila
Excerpt: In addition to the degenerate eye phenotype, raskol Drosophila are prone to induced seizures, as compared to wild type Drosophila.

[3] = tested on: tyrosine catabolic process; experiment: RNAseq of untreated vs NALL-treated raskol Drosophila; assay type: in vivo, Drosophila melanogaster; details: NALL-treated vs untreated raskol flies; TAT, HPD, FAA
Protocol: Enzymes TAT, HPD, FAA highlight the differences in RNA expression in the presence of NALL treatment; molecules are all associated with the tyrosine catabolic process.
Finally, RNAseq was performed to compare gene regulation differences between raskol Drosophila untreated and NALL-treated flies.

LAT1 = LAT1 (Homo sapiens, UniProt Q01650); details: cited from earlier work
LAT1, sequence (Q01650 whole entry, species assumed): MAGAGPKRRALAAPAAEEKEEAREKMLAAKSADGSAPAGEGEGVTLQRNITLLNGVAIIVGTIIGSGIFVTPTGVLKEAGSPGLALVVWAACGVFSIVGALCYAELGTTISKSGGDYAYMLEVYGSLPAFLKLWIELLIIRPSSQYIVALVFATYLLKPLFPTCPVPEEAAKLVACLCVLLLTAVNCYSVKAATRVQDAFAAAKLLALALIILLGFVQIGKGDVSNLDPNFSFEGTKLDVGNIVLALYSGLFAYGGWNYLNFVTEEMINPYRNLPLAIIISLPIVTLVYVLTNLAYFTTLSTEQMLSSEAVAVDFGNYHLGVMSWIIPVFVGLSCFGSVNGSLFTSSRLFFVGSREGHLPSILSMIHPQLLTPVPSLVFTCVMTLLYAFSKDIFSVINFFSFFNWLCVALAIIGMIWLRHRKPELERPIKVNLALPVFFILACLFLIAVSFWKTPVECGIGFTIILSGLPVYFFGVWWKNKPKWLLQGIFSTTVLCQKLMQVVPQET
LAT1, sequence (P08195 102-630 partner, species assumed): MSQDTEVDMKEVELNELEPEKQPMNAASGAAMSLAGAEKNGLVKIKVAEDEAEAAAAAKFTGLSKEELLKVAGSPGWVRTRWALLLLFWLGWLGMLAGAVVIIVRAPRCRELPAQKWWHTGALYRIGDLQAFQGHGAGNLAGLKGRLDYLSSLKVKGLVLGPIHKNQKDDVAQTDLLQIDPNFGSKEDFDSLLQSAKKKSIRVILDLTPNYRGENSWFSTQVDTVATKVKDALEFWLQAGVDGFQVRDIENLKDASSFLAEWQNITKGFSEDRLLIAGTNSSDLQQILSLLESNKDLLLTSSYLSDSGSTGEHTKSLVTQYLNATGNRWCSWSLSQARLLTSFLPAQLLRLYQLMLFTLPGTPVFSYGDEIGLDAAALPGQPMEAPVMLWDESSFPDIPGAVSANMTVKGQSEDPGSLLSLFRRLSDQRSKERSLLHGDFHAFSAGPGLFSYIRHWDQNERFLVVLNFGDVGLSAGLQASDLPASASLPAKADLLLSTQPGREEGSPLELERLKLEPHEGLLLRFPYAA

[4] = tested on: mice with experimental traumatic brain injury; details: cited from earlier work
[5] = tested on: patients with cerebellar ataxia; details: 12 out of 20 individuals; cited from earlier work
[6] = tested on: animals following unilateral labyrinthectomy; details: only minor effects on normal vestibular function; cited from earlier work

In the case of `CC(C)C[C@H](N)C(=O)O` [L-Leucine], the “Effect on eye phenotype recovery (eye size)” value (shortened to “Effect … (eye size)”) [1] is listed as “do not have a significant effect; also recorded: neither NADL nor L-Leucine have a significant effect” and the “Effect on mTORC1” value (mTORC1) is listed as “activates”.
With `CC(=O)N[C@H](CC(C)C)C(=O)O` [NADL, N-acetyl-D-leucine] the “Effect … (eye size)” value [1] was “do not have a significant effect; also recorded: neither NADL nor L-Leucine have a significant effect”.
With `CC(=O)N[C@@H](CC(C)C)C(=O)O` [NALL, N-acetyl-L-leucine] the “Z-score of chemical effects on raskol Drosophila eye phenotype” value [2] was 1.35, the “Effect … (eye size)” value [1] was “significant effect on phenotype recovery, as was observed with NALL” and the “Eye phenotype in validation of top hit” value ([1]; three concentrations (1, 5, and 25 uM) vs no drug control) was “larger, more organized, less degenerate eye”. For the same compound, the “Recovery time after induced seizures” value (raskol Drosophila) was “faster recovery time”, the “Gene regulation differences by RNAseq” value [3] was “Down regulated genes were enriched for tyrosine catabolic processes” and the “Binding or blocking of LAT1” value (LAT1) was “neither binds nor blocks”. For the same compound, the “Effect on mTORC1” value (mTORC1) was “inhibit or negatively regulate”, the “Autophagy in cortical tissue” value ([4]; reduced accumulation of autophagosome markers vs controls) was “increase in autophagy” and the “Motor and cognitive outcomes” value ([4]; treated mice vs controls) was “significant improvement in motor and cognitive outcomes”.
In the case of `CC(=O)N[C@@H](CC(C)C)C(=O)O` [acetyl-leucine], the “Individuals with significant improvements in ataxia” value [5] is listed as 60% and the Vestibular compensation [6] is listed as “accelerate vestibular compensation”.
With `CC(C)(O)CC(=O)O` [beta-hydroxyisovaleric acid, Beta-hydroxyisovaleric acid] the “Effect … (eye size)” value [1] was “do not have a significant effect”.
